The test system of one assay is HIV. Put plainly: Cellular assay: anti-viral activity in HIV-infected MT4 cells (MTT). Conditions: Human immunodeficiency virus 1, 120 h, five days incubation, negative logarithm of EC50. It is filed as cell-based. Here is the method:
Compounds of the present invention were examined for anti-viral activity in a cellular assay, which was performed according to the following procedure.
HIV- or mock-infected MT4 cells were incubated for five days in the presence of various concentrations of the inhibitor. At the end of the incubation period, the replicating virus in the control cultures has killed all HIV-infected cells in the absence of any inhibitor. Cell viability was determined by measuring the concentration of MTT, a yellow, water soluble tetrazolium dye that is converted to a purple, water insoluble formazan in the mitochondria of living cells only. Upon solubilization of the resulting formazan crystals with isopropanol, the absorbance of the solution was monitored at 540 nm. The values correlate directly to the number of living cells remaining in the culture at the completion of the five day incubation. The inhibitory activity of the compound was monitored on the virus-infected cells and was expressed as EC50 and EC90. These values represent the amount of the compound required to protect 50% and 90%, respectively, of the cells from the cytopathogenic effect of the virus. The toxicity of the compound was measured on the mock-infected cells and was expressed as CC50, which represents the concentration of compound required to inhibit the growth of the cells by 50%. The selectivity index (SI) (ratio CC50/EC50) is an indication of the selectivity of the anti-HIV activity of the inhibitor. Wherever results are reported as e.g. pEC50 or pCC50 values, the result is expressed as the negative logarithm of the result expressed as EC50 or CC50 respectively.

Assay [1] has as its target T1, HIV reverse transcriptase (Human immunodeficiency virus type 1 group M subtype B, UniProt P04585).
T1 construct: 5 μl HIV RT enzyme solution at a final enzyme activity of 15 mU per 50 μl reaction; purchased Amersham Life Sciences TRK 1022
The assay is described as follows: In vitro inhibition of HIV reverse transcriptase (kit TRK 1022, 3H-TTP). Conditions: HIV RT enzyme, 4 hours at 37° C., no conversion to active metabolite needed. It is filed as biochemical. Here is the method: The assay was run using kit TRK 1022 (Amersham Life Sciences) according to the manufacturer's instructions with slight modifications. Test compounds were diluted in steps of 1/4 in 100% DMSO and subsequently transferred to Medium A (1/50 dilution; medium A: RPMI 1640+10% FetalClone 1+Gentamycin 20 mg/L). 25 μl of compound (in 2% DMSO in Medium A) or 25 μl of 2% DMSO in medium A was added to wells. To each well was added 25.5 μl master mix (master mix: 5 μl primer/template beads, 10 μl assay buffer, 0.5 μl tracer (3H-TTP), 5 μl HIV RT enzyme solution at a final enzyme activity of 15 mU per 50 μl reaction, 5 μl medium A). The plates were sealed, marked as radioactive and incubated during 4 hours at 37° C. Subsequently, 100 μl stop solution was added to each well (except R1). The radioactivity was counted in a TopCount.

The values that follow come from patent US20070238727A1, “5-Substituted 1-Phenyl-1,5-Dihydro-Pyrido[3,2-B]Indol-2-Ones and Analogs as Anti-Virals” (Tibotec BVBA, priority 2004, published 2007).

Structures are written as SMILES.

By EC50 is commonly meant the concentration giving half of the maximal effect. As for `N#Cc1cc2c(c3ccccc3n2CC(O)CN2CCCC2)n(-c2ccc([N+](=O)[O-])cc2)c1=O` (stereo not drawn) [Compound 2, 5-(2-Hydroxy-3-pyrrolidin-1-yl-propyl)-1-(4-nitro-phenyl)-2-oxo-2,5-dihydro-1H-pyrido[3,2-b]indole-3-carbonitrile], in the assay on HIV, the EC50 was 251 nM. The “inhibition of HIV reverse transcriptase in vitro” value in assay [1] is “inhibit IV reverse transcriptase in vitro”. On to `COCCOCCn1c2ccccc2c2c1cc(C#N)c(=O)n2-c1ccc([N+](=O)[O-])cc1` [Compound 4, 5-[2-(2-Methoxy-ethoxy)-ethyl]-1-(4-nitro-phenyl)-2-oxo-2,5-dihydro-1H-pyrido-[3,2-b]indole-3-carbonitrile], for which, in the assay on HIV, the EC50 was 316 nM. That is a sub-micromolar value. Take `N#Cc1cc2c(c3ccccc3n2CC(O)CN2CCSCC2)n(-c2ccc([N+](=O)[O-])cc2)c1=O` (stereo not drawn) [Compound 9]: the EC50 in the assay on HIV was 794 nM. Still for that read-out and setting: the result for `COCCOCCOCCn1c2ccccc2c2c1cc(C#N)c(=O)n2-c1ccc([N+](=O)[O-])cc1` [Compound 11] reads 1580 nM; that for `COC(Cn1c2ccccc2c2c1cc(C#N)c(=O)n2-c1ccc([N+](=O)[O-])cc1)C[N+](C)(C)C` (stereo not drawn) [Compound 13], 15800 nM.

In turn, `CC(=O)OC(CN1CCCC1)Cn1c2ccccc2c2c1cc(C#N)c(=O)n2-c1ccc([N+](=O)[O-])cc1` (stereo not drawn) [Compound 21] had an EC50 in the assay with HIV of 501 nM. Molecule `N#Cc1cc2c(c3ccccc3n2CCCONC(=N)N)n(-c2ccc([N+](=O)[O-])cc2)c1=O` [Compound 25] showed a concentration giving a half-maximal response (EC50) in the assay with HIV of 15800 nM. `CC1CCCN(CCn2c3ccccc3c3c2cc(C#N)c(=O)n3-c2ccc([N+](=O)[O-])cc2)C1` (stereo not drawn) [Compound 31] gave an EC50 in the assay on HIV of 1000 nM. Take `CC(=O)N1CCN(CCCn2c3ccccc3c3c2cc(C#N)c(=O)n3-c2ccc([N+](=O)[O-])cc2)CC1` [Compound 35]: the EC50 in the assay on HIV is 2510 nM. Consider `CC1CN(CCn2c3ccccc3c3c2cc(C#N)c(=O)n3-c2ccc([N+](=O)[O-])cc2)CC(C)O1` (stereo not drawn) [Compound 40], for which, in the assay with HIV, the EC50 was 1000 nM. Same read-out and setting: the result for `N#Cc1cc2oc3ccccc3c2n(-c2ccc([N+](=O)[O-])cc2)c1=O` [Compound 42, 1-(4-Nitro-phenyl)-2-oxo-1,2-dihydro-benzo[4,5]furo[3,2-b]pyridine-3-carbonitrile] reads 794 nM.
